Measurements taken from ChEMBL document CHEMBL5518248, “Design, Synthesis, and Biological Evaluation of Novel Arylomycins against Multidrug-Resistant Gram-Negative Bacteria” (J Med Chem, 2024).

Tests used:
Type in all cases: functional
Settings in all cases: time 18-20 hrs
Escherichia coli [1] = assay: Antibacterial activity against Escherichia coli ATCC 35218 assessed as inhibition of bacterial growth measured after 18 to 20 hrs by broth microdilution method
Escherichia coli [2] = assay: Antibacterial activity against Escherichia coli 14-2 assessed as inhibition of bacterial growth measured after 18 to 20 hrs by broth microdilution method
Escherichia coli [3] = assay: Antibacterial activity against Escherichia coli 14-4 assessed as inhibition of bacterial growth measured after 18 to 20 hrs by broth microdilution method
Klebsiella pneumoniae [4] = assay: Antibacterial activity against Klebsiella pneumoniae 15-1 assessed as inhibition of bacterial growth measured after 18 to 20 hrs by broth microdilution method
Klebsiella pneumoniae [5] = assay: Antibacterial activity against Klebsiella pneumoniae 15-4 assessed as inhibition of bacterial growth measured after 18 to 20 hrs by broth microdilution method
Klebsiella pneumoniae [6] = assay: Antibacterial activity against Klebsiella pneumoniae 15-5 assessed as inhibition of bacterial growth measured after 18 to 20 hrs by broth microdilution method
Acinetobacter baumannii [7] = assay: Antibacterial activity against Acinetobacter baumannii 17-2 assessed as inhibition of bacterial growth measured after 18 to 20 hrs by broth microdilution method
Acinetobacter baumannii [8] = assay: Antibacterial activity against Acinetobacter baumannii 17-8 assessed as inhibition of bacterial growth measured after 18 to 20 hrs by broth microdilution method
Pseudomonas aeruginosa [9] = assay: Antibacterial activity against Pseudomonas aeruginosa 17-1 assessed as inhibition of bacterial growth measured after 18 to 20 hrs by broth microdilution method
Pseudomonas aeruginosa [10] = assay: Antibacterial activity against Pseudomonas aeruginosa 19-5 assessed as inhibition of bacterial growth measured after 18 to 20 hrs by broth microdilution method

Compound	MIC (Escherichia coli [1])	MIC (Escherichia coli [2])	MIC (Escherichia coli [3])	MIC (Klebsiella pneumoniae [4])	MIC (Klebsiella pneumoniae [5])	MIC (Klebsiella pneumoniae [6])	MIC (Acinetobacter baumannii [7])	MIC (Acinetobacter baumannii [8])	MIC (Pseudomonas aeruginosa [9])	MIC (Pseudomonas aeruginosa [10])
Cc1cc(-c2ncc(C(=O)N[C@@H](CCN)C(=O)N(C)[C@@H]3C(=O)N[C@@H](C)C(=O)N[C@H](C(=O)NCC#N)Cc4ccc(OCCN)c(c4)-c4cc3ccc4OCCN)c(C)n2)ccc1CSSC(C)(C)C.O=C(O)C(F)(F)F.O=C(O)C(F)(F)F.O=C(O)C(F)(F)F.O=C(O)C(F)(F)F	≤ 0.03 µg/mL	0.125 µg/mL	0.06 µg/mL	0.125 µg/mL	0.25 µg/mL	0.25 µg/mL	1 µg/mL	1 µg/mL	4 µg/mL	4 µg/mL
Cc1nc(-c2ccc(C(C)(C)SSC(C)(C)C)cc2)ncc1C(=O)N[C@@H](CCN)C(=O)N(C)[C@@H]1C(=O)N[C@@H](C)C(=O)N[C@H](C(=O)NCC#N)Cc2ccc(OCCN)c(c2)-c2cc1ccc2OCCN.O=C(O)C(F)(F)F.O=C(O)C(F)(F)F.O=C(O)C(F)(F)F.O=C(O)C(F)(F)F	≤ 0.03 µg/mL	≤ 0.03 µg/mL	≤ 0.03 µg/mL	0.125 µg/mL	0.25 µg/mL	0.25 µg/mL	1 µg/mL	0.5 µg/mL	4 µg/mL	4 µg/mL
Cc1nc(-c2ccc(CCSSC(C)(C)C)cc2)ncc1C(=O)N[C@@H](CCN)C(=O)N(C)[C@@H]1C(=O)N[C@@H](C)C(=O)N[C@H](C(=O)NCC#N)Cc2ccc(OCCN)c(c2)-c2cc1ccc2OCCN.O=C(O)C(F)(F)F.O=C(O)C(F)(F)F.O=C(O)C(F)(F)F.O=C(O)C(F)(F)F	≤ 0.03 µg/mL	≤ 0.03 µg/mL	≤ 0.03 µg/mL	0.06 µg/mL	0.125 µg/mL	≤ 0.03 µg/mL	0.25 µg/mL	0.5 µg/mL	4 µg/mL	4 µg/mL
CSCCSSCc1ccc(-c2ncc(C(=O)N[C@@H](CCN)C(=O)N(C)[C@@H]3C(=O)N[C@@H](C)C(=O)N[C@H](C(=O)NCC#N)Cc4ccc(OCCN)c(c4)-c4cc3ccc4OCCN)c(C)n2)cc1.O=C(O)C(F)(F)F.O=C(O)C(F)(F)F.O=C(O)C(F)(F)F.O=C(O)C(F)(F)F	0.125 µg/mL	0.25 µg/mL	0.25 µg/mL	0.5 µg/mL	0.5 µg/mL	0.25 µg/mL	2 µg/mL	1 µg/mL	32 µg/mL	16 µg/mL
Cc1nc(-c2ccc(CSSC3CCC3)cc2)ncc1C(=O)N[C@@H](CCN)C(=O)N(C)[C@@H]1C(=O)N[C@@H](C)C(=O)N[C@H](C(=O)NCC#N)Cc2ccc(OCCN)c(c2)-c2cc1ccc2OCCN.O=C(O)C(F)(F)F.O=C(O)C(F)(F)F.O=C(O)C(F)(F)F.O=C(O)C(F)(F)F	≤ 0.03 µg/mL	0.125 µg/mL	0.125 µg/mL	0.125 µg/mL	0.25 µg/mL	0.25 µg/mL	1 µg/mL	0.5 µg/mL	8 µg/mL	4 µg/mL
Cc1nc(-c2ccc(CSSCCC(F)(F)F)cc2)ncc1C(=O)N[C@@H](CCN)C(=O)N(C)[C@@H]1C(=O)N[C@@H](C)C(=O)N[C@H](C(=O)NCC#N)Cc2ccc(OCCN)c(c2)-c2cc1ccc2OCCN.O=C(O)C(F)(F)F.O=C(O)C(F)(F)F.O=C(O)C(F)(F)F.O=C(O)C(F)(F)F	0.06 µg/mL	0.125 µg/mL	0.125 µg/mL	0.25 µg/mL	0.25 µg/mL	0.25 µg/mL	2 µg/mL	1 µg/mL	8 µg/mL	8 µg/mL
Cc1nc(-c2ccc(C(C)(C)C)cc2)ncc1C(=O)C(=O)N[C@@H](CCN)C(=O)N(C)[C@@H]1C(=O)N[C@@H](C)C(=O)N[C@H](C(=O)NCC#N)Cc2ccc(OCCN)c(c2)-c2cc1ccc2OCCN.O=C(O)C(F)(F)F.O=C(O)C(F)(F)F.O=C(O)C(F)(F)F.O=C(O)C(F)(F)F	2 µg/mL	2 µg/mL	2 µg/mL	8 µg/mL	16 µg/mL	8 µg/mL	4 µg/mL	1 µg/mL	32 µg/mL	64 µg/mL
